Test results taken from patent US8859555B2, “Lysine Specific Demethylase-1 inhibitors and their use” (Oryzon Genomics S.A., priority 2009, dated 2014).
Structures can show the parent of a compound that is named as a salt. Where two headings read alike, the source gives them in different places.

What was measured:
[1] = biological target: T1, Human recombinant LSD1 protein (Homo sapiens, UniProt O60341); assay: LSD1 inhibition, Amplex Red peroxide/peroxidase-coupled demethylase assay; type: biochemical; conditions: for Ki: Ki range class
T1 construct: purchased BPS Bioscience Inc
Source text: Human recombinant LSD1 protein was purchased from BPS Bioscience Inc. In order to monitor LSD1 enzymatic activity and/or its inhibition rate by our inhibitor(s) of interest, di-methylated H3-K4 peptide (Millipore) was chosen as a substrate. The demethylase activity was estimated, under aerobic conditions, by measuring the release of H2O2 produced during the catalytic process, using the Amplex® Red peroxide/peroxidase-coupled assay kit (Invitrogen).
Within the experiment, each concentration of inhibitor was tested in triplicate. […] The enzymatic reactions were set up in a 50 mM sodium phosphate, pH 7.4 buffer. At the end of the incubation, Amplex® Red reagent and horseradish peroxidase (HPR) solution were added to the reaction according to the recommendations provided by the supplier (Invitrogen), and left to incubate for 30 extra minutes at room temperature in the dark. A 1 μM H2O2 solution was used as a control of the kit efficiency. The conversion of the Amplex® Red reagent to resorufin due to the presence of H2O2 in the assay, was monitored by fluorescence (excitation at 540 nm, emission at 590 nm) using a microplate reader (Infinite 200, Tecan). Arbitrary units were used to measure level of H2O2 produced in the absence and/or in the presence of inhibitor.
The maximum demethylase activity of LSD1 was obtained in the absence of inhibitor and corrected for background fluorescence in the absence of LSD1. The Ki of each inhibitor was estimated at half of the maximum activity.

[2] = biological target: T2, Human recombinant monoamine oxidase MAO-B (Homo sapiens, UniProt P27338); assay: MAO-B kynuramine fluorescence inhibition assay; type: biochemical; conditions: Ki range class
T2 construct: purchased Sigma Aldrich
T2 sequence (P27338 1-520): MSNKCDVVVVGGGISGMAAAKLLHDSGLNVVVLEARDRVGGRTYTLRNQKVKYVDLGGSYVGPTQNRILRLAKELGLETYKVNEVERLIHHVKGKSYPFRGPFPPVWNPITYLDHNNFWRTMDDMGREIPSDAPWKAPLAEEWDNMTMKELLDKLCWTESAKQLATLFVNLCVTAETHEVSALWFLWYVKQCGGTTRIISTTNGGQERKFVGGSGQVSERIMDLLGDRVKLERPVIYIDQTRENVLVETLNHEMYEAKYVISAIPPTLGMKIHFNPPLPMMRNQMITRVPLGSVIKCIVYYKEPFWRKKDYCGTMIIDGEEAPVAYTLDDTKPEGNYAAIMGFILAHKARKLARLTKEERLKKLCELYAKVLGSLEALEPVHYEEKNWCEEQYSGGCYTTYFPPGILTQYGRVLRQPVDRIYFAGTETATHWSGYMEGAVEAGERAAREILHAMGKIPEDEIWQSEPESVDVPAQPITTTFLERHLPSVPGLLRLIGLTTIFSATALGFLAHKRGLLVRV
Source text: (§1) Human recombinant monoamine oxidase proteins MAO-A and MAO-B were purchased from Sigma Aldrich. […] In order to monitor MAO enzymatic activities and/or their inhibition rate by inhibitor(s) of interest, a fluorescent-based (inhibitor)-screening assay was set up. 3-(2-Aminophenyl)-3-oxopropanamine (kynuramine dihydrobromide, Sigma Aldrich), a non fluorescent compound was chosen as a substrate. Kynuramine is a non-specific substrate for both MAOs activities. While undergoing oxidative deamination by MAO activities, kynuramine is converted into 4-hydroxyquinoline (4-HQ), a resulting fluorescent product.
(§2) The monoamine oxidase activity was estimated by measuring the conversion of kynuramine into 4-hydroxyquinoline. Assays were conducted in 96-well black plates with clear bottom (Corning) in a final volume of 100 μL. The assay buffer was 100 mM HEPES, pH 7.5. Each experiment was performed in triplicate within the same experiment.
(§3) Briefly, a fixed amount of MAO (0.25 μg for MAO-A and 0.5 μg for MAO-B) was incubated on ice for 15 minutes in the reaction buffer, in the absence and/or in the presence of various concentrations of inhibitor (e.g., from 0 to 50 μM, depending on the inhibitor strength).
(§4) After leaving the enzyme(s) interacting with the inhibitor, 60 to 90 μM of kynuramine was added to each reaction for MAO-B and MAO-A assay respectively, and the reaction was left for 1 hour at 37° C. in the dark. The oxidative deamination of the substrate was stopped by adding 50 μL (v/v) of NaOH 2N. The conversion of kynuramine to 4-hydroxyquinoline, was monitored by fluorescence (excitation at 320 nm, emission at 360 nm) using a microplate reader (Infinite 200, Tecan). Arbitrary units were used to measure levels of fluorescence produced in the absence and/or in the presence of inhibitor.
(§5) The Ki of each inhibitor was measure at Vmax/2.

[3] = biological target: T3, Human recombinant monoamine oxidase MAO-A (Homo sapiens, UniProt P21397); assay: MAO-A kynuramine fluorescence inhibition assay; type: biochemical
T3 construct: purchased Sigma Aldrich
T3 sequence (P21397 1-527): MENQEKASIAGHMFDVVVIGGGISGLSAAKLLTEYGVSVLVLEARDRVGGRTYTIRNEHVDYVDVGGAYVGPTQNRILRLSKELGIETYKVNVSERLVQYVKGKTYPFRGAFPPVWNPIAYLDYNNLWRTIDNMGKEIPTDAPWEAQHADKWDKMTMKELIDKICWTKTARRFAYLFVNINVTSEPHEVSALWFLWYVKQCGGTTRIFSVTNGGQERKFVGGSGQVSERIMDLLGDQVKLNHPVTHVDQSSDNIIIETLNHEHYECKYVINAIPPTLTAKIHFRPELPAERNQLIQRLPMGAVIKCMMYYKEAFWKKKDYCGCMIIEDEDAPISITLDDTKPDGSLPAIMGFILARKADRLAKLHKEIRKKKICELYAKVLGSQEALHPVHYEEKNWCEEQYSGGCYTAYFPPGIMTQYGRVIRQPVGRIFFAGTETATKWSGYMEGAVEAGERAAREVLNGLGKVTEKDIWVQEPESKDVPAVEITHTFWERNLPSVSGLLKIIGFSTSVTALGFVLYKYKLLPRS
Source text: as §1, §2, §3, §4, §5

[4] = system: human colon cancer cell line HCT116; assay: Cancer cell line study, alamarBlue viability assay; type: cell-based; conditions: HCT-116, dose required to inhibit cell growth by 50%, 72 hours, read-out: EC50 value for HCT-116 cells
Method: The human colon cancer cell line HCT116 was obtained from the American Type Culture Collection (ATCC; CCL-247). The HCT116 cell line was maintained in DMEM GlutaMAX (Invitrogen) supplemented with 10% fetal calf serum. Cells were grown in a humidified incubator at 37 C in 5% CO2. Cells were plated in 96-well plates at a density of 6000 cells/well in 100 μl medium 24 h before addition of drugs. They were then added in concentrations from 100 μM to 0.45 nM (each concentration in triplicate). To do so, a drugs-dilution plate at twice the screening concentrations was prepared. 72 hours later, alamarBlue (Biosource, Invitrogen) viability assay was performed following manufacturer's protocol. In brief, alamarBlue diluted in media was added to cells to have a 5% solution. Cells were incubated at 37 C, 3 hours and at room temperature, 30 min. Cells with no drug and, cells with no drug and lysed with triton X-100 were used as controls. Fluorescence was monitored at 530 nm excitation and 590 nm emission wavelengths. Results were quantified using Infinite F200 Microplate Reader (Tecan Group, Ltd.). EC50 were calculated as the dose of drugs required to inhibit cell growth by 50%, with Origin 7.0 computer program.

[5] = Ki range class, read-out: MAO A (Ki)

Compound	Ki [1] [nM]	Ki [2] [nM]	Ki [3, 5] [nM]	Ki value for LSD1 lower than Ki values for MAO-A and MAO-B ([1]; selectivity LSD1 versus MAO-A and MAO-B)	Ki ([3]; Ki (IC50), in these assays described herein, read-out: Ki for MAO-A) [nM]	MAO A (Ki) ([3]; Ki range class)	EC50 [4] [nM]	MAO B (Ki) [2]
CN1CCN(CCN[C@@H]2C[C@H]2c2ccc(-c3cccc(C(F)(F)F)c3)cc2)CC1 (relative stereo) [Example 11, (Trans)-N-(2-(4-methylpiperazin-1-yl)ethyl)-2-(3′-(trifluoromethyl)biphenyl-4-yl)cyclopropanamine dihydrochloride]	1 to 100	1000 to 40000	1000 to 40000					
N[C@@H]1CCN(CCN[C@H]2CC2c2ccc(-c3cccc(C(F)(F)F)c3)cc2)C1 (stereo partly drawn) [Example 13, (R)-1-(2-((trans)-2-(3′-(trifluoromethyl)biphenyl-4-yl)cyclopropylamino)ethyl)pyrrolidin-3-amine dihydrochloride]	1 to 100	1000 to 40000	1000 to 40000					
CCN(CC)CCN[C@@H]1C[C@H]1c1ccccc1 (relative stereo) [Example 8, N1,N1-diethyl-N2-((trans)-2-phenylcyclopropyl)ethane-1,2-diamine dihydrochloride salt]	1 to 100	> 40000	1000 to 40000					
CC(C)CSCCN[C@@H]1C[C@H]1c1ccccc1 (relative stereo) [Example 15, N-(trans)-2-(isobutylthio)-ethyl-2-phenylcyclopropanamine hydrochloride]	100 to 1000	1000 to 40000	1000 to 40000					
CN1CCN(CCN[C@@H]2C[C@H]2c2ccc(-c3cccc(Cl)c3)cc2)CC1 (relative stereo) [Example 12, (Trans)-2-(3′-chlorobiphenyl-4-yl)-N-(2-(4-methylpiperazin-1-yl)ethyl)cyclopropanamine dihydrochloride]	1 to 100	1000 to 40000						
Cl.Cl.c1ccc([C@@H]2C[C@H]2NCCN2CCNCC2)cc1 (relative stereo) [Example 7, N-[(trans)-2-phenylcyclopropyl]-N-(2-piperazin-1-ylethyl)amine dihydrochloride salt]	1 to 100	> 40000			~40000	I, II		
CN1CCN(CCN[C@@H]2C[C@H]2c2ccc(OCc3ccccc3)cc2)CC1 (relative stereo) [Example 10, (trans)-2-(4-(benzyloxy)phenyl)-N-(2-(4-methylpiperazin-1-yl)ethyl)cyclopropanamine dihydrochloride salt]	1 to 100	1000 to 40000	1000 to 40000				~11000	
FC(F)(F)c1cccc(-c2ccc([C@@H]3C[C@H]3NCCNC3CC3)cc2)c1 (relative stereo) [Example 14, N^1-cyclopropyl-N^2-((trans)-2-(3′-(trifluoromethyl)biphenyl-4-yl)cyclopropyl)ethane-1,2-diamine]	100 to 1000		1000 to 40000					II, I II

Further lines, results first:

Ki [1] [nM]	Ki [2] [nM]	Ki [3, 5] [nM]	Ki value for LSD1 lower than Ki values for MAO-A and MAO-B ([1]; selectivity LSD1 versus MAO-A and MAO-B)	Ki ([3]; Ki (IC50), in these assays described herein, read-out: Ki for MAO-A) [nM]	MAO A (Ki) ([3]; Ki range class)	EC50 [4] [nM]	MAO B (Ki) [2]	Compound
100 to 1000	1000 to 40000	1000 to 40000						COCCN[C@@H]1C[C@H]1c1ccccc1 (relative stereo) [Example 17, N-trans-(2-methoxyethyl)-2-phenylcyclopropanamine hydrochloride]
	> 40000	> 40000						CN(C)[C@H]1CCN(CCN[C@H]2CC2c2ccccc2)C1 (stereo partly drawn) [Example 5, (3S)—N,N-dimethyl-1-(2-{[(trans)-2-phenylcyclopropyl]amino}ethyl)pyrrolidin-3-amine dihydrochloride salt]
	1000 to 40000	1000 to 40000						CN(C)[C@@H]1CCN(CCN[C@H]2CC2c2ccccc2)C1 (stereo partly drawn) [Example 6, (3R)—N,N-dimethyl-1-(2-{[(trans)-2-phenylcyclopropyl]amino}ethyl)pyrrolidin-3-amine]
100 to 1000	1000 to 40000	> 40000						CN(C)CCNCCN[C@@H]1C[C@H]1c1ccccc1 (relative stereo) [Example 3, N,N-dimethyl-N′-(2-{[(trans)-2-phenylcyclopropyl]amino}ethyl)ethane-1,2-diamine]
100 to 1000	1000 to 40000	1000 to 40000						CCOCCN[C@@H]1C[C@H]1c1ccccc1 (relative stereo) [Example 16, N-trans-(2-ethoxyethyl)-2-phenylcyclopropanamine hydrochloride]
1 to 100	> 40000	> 40000	more than 100 fold					Cl.Cl.N[C@@H]1CCN(CCN[C@H]2CC2c2ccccc2)C1 (stereo partly drawn) [Example 4, (3R)-1-(2-{[(trans)-2-phenylcyclopropyl]amino}ethyl)pyrrolidin-3-amine dihydrochloride salt]
100 to 1000	100 to 1000	1000 to 40000						c1ccc([C@@H]2C[C@H]2NCCNC2CC2)cc1 (relative stereo) [Example 2, N-cyclopropyl-N′-[(trans)-2-phenylcyclopropyl]ethane-1,2-diamine dihydrochloride salt]
1 to 100	1000 to 40000	> 40000						c1ccc([C@@H]2C[C@H]2NCCN2CCCCC2)cc1 (relative stereo) [Example 9, N-[(trans)-2-phenylcyclopropyl]-N-(2-piperidin-1-ylethyl)amine]
1 to 100	1000 to 40000	> 40000						CN1CCN(CCN[C@@H]2C[C@H]2c2ccccc2)CC1 (relative stereo) [Example 1, N-[2-(4-methylpiperazin-1-yl)ethyl]-N-[(trans)-2-phenylcyclopropyl]amine dihydrochloride salt]
